The values below are quoted from earlier work in patent US20240424165A1, “NEW COATING OF IMPLANTS” (Universität Münster, priority 2021, published 2024).

This data set concerns S. aureus.

SMILES strings stand for the structures. Values after ≈ are worked out from the molar mass of the structure shown.

The MIC is the least concentration at which growth counts as inhibited. Turning to `CO[C@H]1/C=C/O[C@@]2(C)Oc3c(C)c(O)c4c(O)c(c(/C=N/N5CCN(C)CC5)c(O)c4c3C2=O)NC(=O)/C(C)=C\C=C\[C@H](C)[C@H](O)[C@@H](C)[C@@H](O)[C@@H](C)[C@H](OC(C)=O)[C@@H]1C` [rifampin], the MIC was 0.06 µg/mL (≈ 0.0729 µM).
